Results: patent US6858741B2, “Alkyl-dihalogenated phenyl-substituted ketoenols useful as pesticides and herbicides” (Bayer Aktiengesellschaft, priority 1995, dated 2005)
Values belong to the compound of their own block, whether it stands above or below them.

Legend:
[1] = system: resistant Boophilus microplus, SP resistant Parkhurst strain; assay: Test with resistant Boophilus microplus / SP resistant Parkhurst strain; format: in vivo; settings: active compound concentration 20 μg/animal; injected into the abdomen
Method: [table] 20 mg of active compound are dissolved in 1 ml of dimethyl sulphoxide, and lesser concentrations are prepared by dilution with the same solvent. The test is carried out in 5 applications. 1 μl of the solutions is injected into the abdomen, and the animals are transferred into dishes and kept in a controlled-environment cabinet. The activity is determined via the inhibition of oviposition. 100% means that no tick has produced eggs.

[2] = system: fly larvae; assay: Test with fly larvae/development-inhibitory action; format: in vivo; settings: active compound concentration 1000 ppm
Method: [table] To produce a suitable formulation, 3 parts by weight of active compound are mixed with 7 parts of the abovementioned solvent/emulsifier mixture, and the resulting emulsion concentrate is diluted with water to the concentration desired in each case. For each concentration, 30 to 50 larvae are transferred to horsemeat (1 cm^3) located in glass tubes and 500 μl of the test dilution are pipetted onto the meat. The glass tubes are placed into plastic beakers whose bottom is covered with sea sand and kept in a control-environment cabinet (26° C.±1.5° C., 70% relative humidity±10%). The activity is checked after 24 hours and 48 hours (larvicidal action). After the larvae have left the glass tubes (approximately 72 hours), the tubes are removed, and perforated plastic lids are placed on the beakers. After 1½ times the development period (hatching of the control flies), the hatched flies and the pupae/puparia are counted. The criterion for the action is death in the treated larvae after 48 hours (larvicidal effect) or inhibition of adults hatching from the pupae or inhibition of pupation. The criterion for the in-vitro action of a substance is the inhibition of fly development or a standstill of development prior to the adult stage. 100% larvicidal activity means that all larvae have died after 48 hours. 100% development-inhibitory activity means that no adult flies have hatched.

[3] = system: caterpillars of the fall armyworm (Spodoptera frugiperda); assay: Spodoptera test; format: in vivo; settings: after 7 days; active compound concentration 0.1%; dipped cabbage leaves
Method: (§1) [table] To produce a suitable preparation of active compound, 1 part by weight of active compound is mixed with the stated amount of solvent and the stated amount of emulsifier, and the concentrate is diluted with water to the desired concentration. Cabbage leaves (Brassica oleracea) are treated by being dipped into the preparation of active compound of the desired concentration and are infested with caterpillars of the fall armyworm (Spodoptera frugiperda) while the leaves are still moist. After the specified period of time, the destruction in % is determined. 100% means that all the caterpillars have been killed; 0% means that none of the caterpillars have been killed.

[4] = system: green rice leafhopper (Nephotettix cincticeps); assay: Nephotettix test; format: in vivo; settings: after 6 days; active compound concentration 0.1%; dipped rice seedlings
Method: as §1, with “Rice seedlings (Oryza sativa)” for “Cabbage leaves (Brassica oleracea)”, “with” for “with caterpillars of”, “green rice leafhopper (Nephotettix cincticeps)” for “fall armyworm (Spodoptera frugiperda)”, “seedlings” for “leaves”, “leafhoppers” for “caterpillars”

[5] = system: green peach aphid (Myzus persicae); assay: Myzus test; format: in vivo; settings: after 6 days; active compound concentration 0.1%; dipped cabbage leaves
Method: as §1, with “oleracea) which are severely infested with the green peach aphid (Myzus persicae)” for “oleracea)”, “concentration.” for “concentration and are infested with caterpillars of the fall armyworm (Spodoptera frugiperda) while the leaves are still moist.”, “aphids” for “caterpillars”

[6] = system: caterpillars of the diamond-back moth (Plutella maculipennis); assay: Plutella test; format: in vivo; settings: after 7 days; active compound concentration 0.1%; dipped cabbage leaves
Method: as §1, with “diamond-back moth (Plutella maculipennis)” for “fall armyworm (Spodoptera frugiperda)”

[7] = system: greenhouse red spider mite or two-spotted spider-mite (Tetranychus urticae); assay: Tetranychus test (OP-resistant/immersion treatment); format: in vivo; settings: after 13 days; active compound concentration 0.1%; immersion treatment of bean plants
Method: (§2) [table] To produce a suitable preparation of active compound, 1 part by weight of active compound is mixed with the stated amount of solvent and the stated amount of emulsifier, and the concentrate is diluted with water to the desired concentrations. Bean plants (Phaseolus vulgaris) which are severely infested with all development stages of the greenhouse red spider mite or two-spotted spider-mite (Tetranychus urticae) are immersed in a preparation of active compound of the desired concentration. After the specified period of time, the destruction in % is determined. 100% means that all the spider mites have been killed; 0% means that none of the spider mites have been killed.

[8] = system: mustard beetle larvae (Phaedon cochleariae); assay: Phaedon larvae test; format: in vivo; settings: after 7 days; active compound concentration 0.1%; dipped cabbage leaves
Method: [table] To produce a suitable preparation of active compound, 1 part by weight of active compound is mixed with the stated amount of solvent and the stated amount of emulsifier, and the concentrate is diluted with water to the desired concentration. Cabbage leaves (Brassica oleracea) are treated by being dipped into the preparation of the active compound of the desired concentration and are infested with mustard beetle larvae (Phaedon cochleariae) while the leaves are still moist. After the specified period of time, the destruction in % is determined. 100% means that all the beetle larvae have been killed; 0% means that none of the beetle larvae have been killed.

[9] = system: test plants; assay: Pre-emergence test/greenhouse; format: in vivo; settings: greenhouse, 250 g/ha, rated after three weeks vs untreated control, 0%=no action, 100%=total destruction
Method: [table] To produce a suitable preparation of active compound, 1 part by weight of active compound is mixed with the stated amount of solvent, the stated amount of emulsifier is added and the concentrate is diluted with water to the desired concentration. Seeds of the test plants are sown in normal soil and, after 24 hours, watered with the preparation of the active compound. It is expedient to keep constant the amount of water per unit area The concentration of the active compound in the preparation is of no importance, only the amount of active compound applied per unit area being decisive. After three weeks, the degree of damage to the plants is rated in % damage in comparison to the development of the untreated control. The figures denote: • 0%=no action (like untreated control) 100%=total destruction [table]

[10] = system: greenhouse red spider mite or two-spotted spider-mite (Tetranychus urticae); assay: Tetranychus test (OP-resistant/spray treatment); format: in vivo; settings: after 7 days; active compound concentration 0.004%; spray treatment of bean plants
Method: as §2, with “sprayed with” for “immersed in”

[11] = system: test plants; assay: Post-emergence test; format: in vivo; settings: post-emergence (footnote *); 250 g/ha; rated after three weeks vs untreated control; 0%=no action, 100%=total destruction

Compound: Cc1cc(Cl)cc(Cl)c1C1=C(OC(=O)C(C)C)C2(CCCC(C)C2)NC1=O (single isomer, unassigned) [Example I-1-b-3]
activity (inhibition of oviposition) [1]: 100%
activity (larvicidal / development-inhibitory) [2]: 100%

Compound: Cc1cc(Cl)cc(Cl)c1C1=C(OC(=O)c2ccccc2)C2(CCCC(C)C2)NC1=O (single isomer, unassigned) [Example I-1-b-5]
destruction [3]: 100%

Compound: Cc1cc(Cl)cc(Cl)c1C1=C(O)C(C)(C(C)C)NC1=O (stereo not shown) [Example I-1-a-1]
destruction [4]: 100%
destruction [5]: 100%
destruction [6]: 100%

Compound: Cc1cc(Cl)cc(Cl)c1C1=C(O)C2(CCOCC2)NC1=O [Example I-1-a-5]
activity (inhibition of oviposition) [1]: 100%
activity (larvicidal / development-inhibitory) [2]: 100%

Compound: CC(=O)OC1=C(c2c(C)cc(Cl)cc2Cl)C(=O)NC12CCCCC2 [Example I-1-b-7]
activity (destruction) [7]: 100%
destruction [8]: 100%
degree of damage, Alopecurus myosuroides [9]: 95%
degree of damage, Avena fatua [9]: 80%
degree of damage, Beta vulgaris [9]: 30%
degree of damage, Setaria viridis [9]: 100%
degree of damage, Sinapis arvensis [9]: 100%
destruction [5]: 100%

melting point: > 240 °C
Compound: Cc1cc(Cl)cc(Cl)c1C1=C(O)C2(CCCCC2)OC1=O [Example I-2-a-1, 3-(2,4-dichloro-6-methyl-phenyl)-5-spirocyclohexyltetronic acid]

Compound: Cc1cc(Cl)c(C2=C(O)C3(CCCCC3)OC2=O)c(Cl)c1 [Example I-2-a-5]
destruction [5]: 100%

Compound: Cc1cc(Cl)c(C2=C(O)C3(CCC(C)CC3)OC2=O)c(Cl)c1 (stereo not shown) [Example I-2-a-6]
activity (inhibition of oviposition) [1]: 100%
activity (larvicidal / development-inhibitory) [2]: 100%
destruction [8]: 100%
destruction [5]: 100%

melting point: 137 °C
Compound: Cc1cc(Cl)cc(Cl)c1C1=C(OC(=O)C(C)(C)C)C2(CCCCC2)OC1=O [Example I-2-b-1, 4-pivaloyl-oxy-3-(2,4-dichloro-6-methyl-phenyl)-5-spiro-cyclohexyl-tetronic acid]
activity (destruction) [10]: 100%

Compound: Cc1cc(Cl)cc(Cl)c1-c1c(O)c(C)c(-c2ccccn2)oc1=O [Example I-5-a-1]
degree of damage, Alopecurus myosuroides [11]: 80%
degree of damage, Beta vulgaris [11]: 0%
degree of damage, Alopecurus myosuroides [9]: 80%
degree of damage, Beta vulgaris [9]: 0%
